The source of these data is ChEMBL document CHEMBL1134371, “Molecular modeling studies of the Akt PH domain and its interaction with phosphoinositides” (J Med Chem, 2001).

The target in assay [1] is RAC-alpha serine/threonine-protein kinase (Homo sapiens) (UniProt P31749). Briefly: Inhibition of protein kinase B (Akt) PH domain.
Assay [2] shares this target. Briefly: Binding affinity for protein kinase B (Akt) PH domain.
Assay [3] shares this target. Briefly: Binding activity for protein kinase B (Akt) PH domain.
For assay [4] the target is unchanged. Briefly: Inhibition of binding to Protein kinase B (Akt) PH domain. Also noted: scale not given: the % may be the effect or the level left.

Sequence of RAC-alpha serine/threonine-protein kinase (Homo sapiens) (P31749 whole entry, the tested form may be a part): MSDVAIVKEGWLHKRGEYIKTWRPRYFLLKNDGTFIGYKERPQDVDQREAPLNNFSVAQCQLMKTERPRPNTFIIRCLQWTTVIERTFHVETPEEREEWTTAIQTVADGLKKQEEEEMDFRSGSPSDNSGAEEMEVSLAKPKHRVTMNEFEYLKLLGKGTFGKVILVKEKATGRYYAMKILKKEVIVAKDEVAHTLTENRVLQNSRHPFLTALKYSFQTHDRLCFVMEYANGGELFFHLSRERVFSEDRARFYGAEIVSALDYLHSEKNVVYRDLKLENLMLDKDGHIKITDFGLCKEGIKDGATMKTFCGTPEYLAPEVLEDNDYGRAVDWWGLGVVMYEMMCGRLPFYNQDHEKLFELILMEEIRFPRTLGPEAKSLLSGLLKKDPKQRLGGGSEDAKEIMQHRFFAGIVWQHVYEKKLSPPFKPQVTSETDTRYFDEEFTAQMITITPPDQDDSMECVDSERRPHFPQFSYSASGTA

As for `CCCCCCCCCCCCCCCCCCOC[C@H](COC(=O)O[C@@H]1[C@H](O)[C@@H](CO)[C@@H](O)[C@H](O)[C@@H]1O)OC` (stereo in doubt; 1), the Ratio in assay [1] came to 5.
With `CCCCCCCCCCCCCCCCCCCC(=O)OC(COC(=O)CCCCCCCCCCCCCCCCC)COP(=O)(O)OC1C(O)CC(OP(=O)(O)O)C(OP(=O)(O)O)C1O` (configuration not stated), the Ratio in assay [2] came out at 0.57. Besides, the Activity in assay [3] came to 100%.
As for `CCCCCCCCCCCCCCCCCCOC[C@H](COC(=O)O[C@@H]1[C@H](O)[C@@H](CO)[C@@H](O)[C@H](O)[C@@H]1O)OC` (stereo in doubt; 2), in assay [1], the Ratio is 32.
Turning to `CCCCCCCCCCCCCCCCCCCC(=O)OC(COC(=O)CCCCCCCCCCCCCCCCC)COP(=O)(O)OC1C(O)C(OP(=O)(O)O)C(OP(=O)(O)O)C(OP(=O)(O)O)C1O` (configuration not stated), the Activity in assay [4] was -35%. Further, in assay [2], the Ratio was 0.4.
Turning to `CCCCCCCCCCCCCCCCCCCC(=O)OC(COC(=O)CCCCCCCCCCCCCCCCC)COP(=O)(O)OC1C(O)CCC(OP(=O)(O)O)C1O` (configuration not stated), the Activity in assay [3] came out at 13%.
